Results reported in patent US11674959B2, “Methods for identifying and preparing pharmaceutical agents for activating Tie1 and/or Tie2 receptors” (The Johns Hopkins University, priority 2017, dated 2023).

How the values were obtained:
[1] = target: T1, Tie2 / α5 integrin (Homo sapiens, UniProt P08648); experiment: Tie2 immunoprecipitation from fractionated lysates, blotted for α5 integrin; type: cell-based; conditions: peptide-treated insoluble fraction; with 200 ng/ml Ang2 or no growth factor
T1 construct: host or cells: human dermal microvascular endothelial cells (MECs)
T1 sequence (P08648 42-894 limits assumed): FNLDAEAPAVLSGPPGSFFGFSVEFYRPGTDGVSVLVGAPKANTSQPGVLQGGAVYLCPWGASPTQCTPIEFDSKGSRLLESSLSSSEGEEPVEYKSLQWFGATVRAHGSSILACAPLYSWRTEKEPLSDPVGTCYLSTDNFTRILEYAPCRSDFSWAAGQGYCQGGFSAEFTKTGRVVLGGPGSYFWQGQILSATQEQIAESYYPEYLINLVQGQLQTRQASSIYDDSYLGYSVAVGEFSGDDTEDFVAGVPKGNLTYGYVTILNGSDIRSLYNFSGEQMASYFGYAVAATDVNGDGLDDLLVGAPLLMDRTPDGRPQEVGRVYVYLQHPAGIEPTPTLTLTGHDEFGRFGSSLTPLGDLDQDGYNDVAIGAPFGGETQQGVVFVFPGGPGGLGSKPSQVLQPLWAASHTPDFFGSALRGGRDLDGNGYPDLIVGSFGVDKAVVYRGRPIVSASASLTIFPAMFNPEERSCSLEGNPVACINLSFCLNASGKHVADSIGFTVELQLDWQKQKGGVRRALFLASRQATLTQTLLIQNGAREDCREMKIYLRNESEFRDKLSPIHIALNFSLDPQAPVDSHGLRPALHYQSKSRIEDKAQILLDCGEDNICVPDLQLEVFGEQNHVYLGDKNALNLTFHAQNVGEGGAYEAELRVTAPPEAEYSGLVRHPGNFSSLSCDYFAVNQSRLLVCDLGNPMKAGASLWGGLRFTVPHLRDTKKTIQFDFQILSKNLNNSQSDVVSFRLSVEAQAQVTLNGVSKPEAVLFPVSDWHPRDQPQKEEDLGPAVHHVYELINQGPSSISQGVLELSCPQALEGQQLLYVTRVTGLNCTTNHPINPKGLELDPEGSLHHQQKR
T1 sequence (P08648 895-1049 limits assumed): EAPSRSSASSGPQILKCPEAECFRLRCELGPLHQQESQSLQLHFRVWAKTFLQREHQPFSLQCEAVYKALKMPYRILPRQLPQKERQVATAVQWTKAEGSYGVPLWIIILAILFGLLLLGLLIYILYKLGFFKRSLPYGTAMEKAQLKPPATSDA
T1 sequence (Q02763 23-1124 partner): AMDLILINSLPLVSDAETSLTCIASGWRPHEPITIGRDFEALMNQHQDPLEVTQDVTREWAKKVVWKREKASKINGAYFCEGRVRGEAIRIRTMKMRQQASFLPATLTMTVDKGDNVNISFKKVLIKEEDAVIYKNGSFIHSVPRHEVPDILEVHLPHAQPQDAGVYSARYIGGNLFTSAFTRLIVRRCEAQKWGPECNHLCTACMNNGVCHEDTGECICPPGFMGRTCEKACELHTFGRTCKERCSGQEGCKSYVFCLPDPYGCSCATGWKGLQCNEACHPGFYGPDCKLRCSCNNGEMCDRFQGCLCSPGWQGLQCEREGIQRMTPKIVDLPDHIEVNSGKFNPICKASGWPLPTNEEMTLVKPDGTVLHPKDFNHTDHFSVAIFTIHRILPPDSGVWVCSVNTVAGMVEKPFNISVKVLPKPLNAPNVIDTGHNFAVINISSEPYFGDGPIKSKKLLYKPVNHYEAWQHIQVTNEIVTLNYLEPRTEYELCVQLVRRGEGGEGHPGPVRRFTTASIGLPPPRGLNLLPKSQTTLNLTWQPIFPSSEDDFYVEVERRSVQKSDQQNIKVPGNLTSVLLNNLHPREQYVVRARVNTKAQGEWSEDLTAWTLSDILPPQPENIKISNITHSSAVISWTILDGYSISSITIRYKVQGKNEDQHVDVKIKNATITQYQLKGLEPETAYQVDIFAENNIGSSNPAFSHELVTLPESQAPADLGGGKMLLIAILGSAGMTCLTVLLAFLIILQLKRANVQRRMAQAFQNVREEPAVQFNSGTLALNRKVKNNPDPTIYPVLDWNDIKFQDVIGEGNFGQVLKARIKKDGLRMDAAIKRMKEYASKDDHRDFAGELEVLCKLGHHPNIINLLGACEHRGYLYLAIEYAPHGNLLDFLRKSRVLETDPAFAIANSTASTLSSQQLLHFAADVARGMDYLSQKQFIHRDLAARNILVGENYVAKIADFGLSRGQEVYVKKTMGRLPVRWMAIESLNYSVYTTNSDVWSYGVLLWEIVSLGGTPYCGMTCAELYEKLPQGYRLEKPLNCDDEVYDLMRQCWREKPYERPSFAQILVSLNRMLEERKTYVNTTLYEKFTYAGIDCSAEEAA
Protocol: Finally, it was determined whether or not the α5 integrin subunit remains complexed with Tie2 following its disassociation with β1 integrin.
(§1) The isolation of Triton X-100 soluble and insoluble fractions was performed using modifications to previously-described procedures (see, e.g., Lampugnani et al., J Cell Biol. 1995; 129(1):203-217). FN1-coated six-well plates were seeded with 2.5×10^6 cells and cultured for forty-eight hours, as described above. The cultures were then serum starved for ninety minutes in EBM-2 media, treated with 100 μM AXT107 or DMSO vehicle, and fifteen minutes with 1 mM sodium vanadate. The cells were then stimulated with either 100 ng/ml VEGFA, 400 ng/ml Ang2, or PBS for fifteen minutes. The plates were then transferred to ice and washed twice with cold dPBS containing Ca^2+ and Mg^2+ and twice with EBM-2 media. The media was then removed and the cells incubated for thirty minutes on ice, at 4° C. in 200 μl of Triton X-100 extraction buffer (10 mM Tris-HCl, pH 7.5; 150 mM NaCl; 2 mM CaCl2; 1% NP-40; 1% […]; and a protease inhibitor cocktail (Cell Signaling, Cat #: 5871)) with occasional agitation. The extraction buffer was gently collected and centrifuged at 12,000×g for five minutes. […] Samples were analyzed by western blot as described above. […]

[2] = tested on: Tie2; experiment: Tie2 activation in vivo, retinopathy of prematurity (ROP) mouse model
Text: To investigate the effects of AXT107 on Tie2 activation in vivo, retinopathy of prematurity (ROP) mouse model was used. In this system, P7 pups are placed in 75% O2 for five days, resulting in a loss of retinal capillary density from hyperoxia and a rapid induction of neovascularization upon the pup's return to normoxic conditions. […] Increased levels of Ang2 in the vitreous contribute to vessel leakage and macular edema in various retinopathies.

[3] = tested on: Tie2; experiment: Tie2 immunoprecipitation from fractionated MEC lysates, blotted for phospho-Tie2; type: cell-based, human; conditions: Ang2 with or without AXT107; soluble vs insoluble fractions
Protocol: Next, experiments were performed to determine whether or not relocation of Tie2 to the insoluble fraction was important for Tie2's activation by Ang2. Tie2 was immunoprecipitated from fractionated MEC lysates exposed to Ang2 with or without AXT107 and then immunoblotted for phospho-Tie2.
as §1, with “agitation.” for “agitation. The extraction buffer was gently collected and centrifuged at 12,000×g for five minutes.”

[4] = tested on: MEC monolayers; experiment: FITC Transwell permeability assay; type: cell-based, human
Protocol: The integrity of these junctions is also important for the regulation of monolayer permeability by controlling the size of intercellular openings. The effect of the AXT107 on EC permeability was further investigated by the transendothelial diffusion of FITC-labeled dextran across MEC monolayers seeded onto permeable Transwell® substrates.
Human dermal microvascular endothelial cells (Lonza) were maintained at 37° C. and 5% CO2 in EBM-2MV medium (Lonza) and used between passages two through seven. Where applicable, cells were serum starved in EBM-2 medium (Lonza) with no supplements. For FITC-Dextran permeability assays phenol red-free media were used to avoid auto-fluorescence. AXT107 were manufactured at New England Peptide by […], lyophilized, and dissolved in 100% DMSO.
Transwell, twenty-four-well inserts (Corning) were coated with 7.5 μg/cm^2 FN1 for two hours at 37° C., aspirated, and then dried for thirty minutes at room temperature. Wells were then seeded with 7.5×10^4 MECs in 100 μl of EBM-2 media (without phenol red) and allowed to settle for thirty minutes at room temperature. 1 ml of EGM-2 media was then added to the bottom chamber and an additional 200 μl to the top chamber. The plate was incubated for twenty-four hours at 37° C. after which the media was aspirated and an additional 7.5×10^4 MECs were plated in each well as described above. After forty-eight hours at 37° C., the media was aspirated from both chambers and the cells were washed twice in dPBS containing Ca^2+ and Mg^2+, once with EBM-2 media (without phenol red) and serum starved in EBM-2 media applied to both chambers for two hours at 37° C. After this incubation, 100 μM AXT107 or an equivalent amount of DMSO vehicle was added and incubated for an additional ninety minutes. In the top chamber, the cells were then treated with 200 ng/ml Ang2, 100 ng/ml VEGFA, both, or PBS control and in the bottom chamber, the cells were then treated with 25 μg/ml FITC-Dextran (40 kDa MW). AXT107 was also added in both chambers to maintain a concentration of 100 μM. After three hours, 10 μl was removed from the top chamber of each well and mixed with 90 μl of water in a clear bottom, 96-well plate. Fluorescence values for each sample were calculated using a Perkin Elmer plate reader.

## LRRFSTAPFAFIDINDVINF [AXT107]
[1]
  α5 integrin complexed with Tie2: α5 integrin was observed in the peptide-treated, insoluble fraction following immunoprecipitation of Tie2
[2]
  Activation of Tie2 by Ang2 in vivo: potentiates the activation of Tie2 by Ang2 both in vitro and in vivo
[3]
  Tie2 phosphorylation by fraction: phosphorylation was observed only in the insoluble fractions of peptide-treated samples
[4]; 100 μM AXT107 pre-incubation + Ang2, vs growth factor alone
  FITC-dextran diffusion into the top chamber: significant decrease in FITC-dextran diffusion into the top chamber
[4]; 100 μM AXT107 pre-incubation + Ang2 in combination with VEGF, vs growth factors alone
  FITC-dextran diffusion into the top chamber: significant decrease in FITC-dextran diffusion into the top chamber
[4]; VEGF in the presence vs absence of peptide
  FITC-dextran diffusion into the top chamber: similar, but non-significant trend
[4]; single agent alone, FITC-Dextran 40 kDa, three hours
  FITC-dextran diffusion across the monolayer, agent alone: influenced FITC-dextran diffusion across the monolayer
